In PMC8973439, “From Fish Scale Gelatin to Tyrosinase Inhibitor: A Novel Peptides Screening Approach Application” (Frontiers in Nutrition, 2022):
Like-named read-outs stand apart in the source and are kept apart here. Where a SMILES comes first, the peptide text is derived from it.

Assays:
tyrosinase = details: cited from earlier work
Excerpt: Studies have shown that peptides with lower MW tend to have higher functional activity ([38]). Therefore, peptides with MW ≤ 1,000 Da were selected from the 52 peptides obtained, and 16 peptides (shown in Table 3) were obtained for subsequent analysis. Section Amino Acid Composition and Molecular Weight Distribution of Hydrolysates introduced some amino acids that contribute to tyrosinase inhibition, such as Val, Ala, Leu, Ile, Arg, Phe, Cys, Ser, and Thr. According to the screening method from previous study ([10]), 16 peptides in Table 3 were counted for their tyrosinase inhibitory contribut ...

Mushroom tyrosinase = Mushroom tyrosinase (Agaricus bisporus, UniProt C7FF04); experiment: Tyrosinase inhibitory activity (L-DOPA oxidation, 475 nm); format: biochemical
Mushroom tyrosinase, sequence (C7FF04 1-392): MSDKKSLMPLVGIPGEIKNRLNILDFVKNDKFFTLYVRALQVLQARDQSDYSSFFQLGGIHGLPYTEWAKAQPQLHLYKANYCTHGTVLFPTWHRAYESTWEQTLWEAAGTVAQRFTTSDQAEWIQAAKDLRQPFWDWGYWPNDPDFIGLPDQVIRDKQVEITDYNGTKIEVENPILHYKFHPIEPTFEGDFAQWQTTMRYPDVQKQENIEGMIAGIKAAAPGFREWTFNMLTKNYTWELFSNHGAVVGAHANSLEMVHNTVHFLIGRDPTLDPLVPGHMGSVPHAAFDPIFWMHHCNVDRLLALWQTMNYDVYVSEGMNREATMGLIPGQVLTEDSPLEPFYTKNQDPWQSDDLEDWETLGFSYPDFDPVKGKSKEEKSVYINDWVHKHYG
Experimental: The determination of the tyrosinase inhibitory activity was made according to Uysal et al. ([26]). Sample solutions (50 μl) with the appropriate concentration were reacted with 50 μl of 200 mM pH 6.8 phosphate buffer saline (PBS) solution and 50 μl of tyrosinase at room temperature for 15 mins. Then, 50 μl of 2.5 mM L-DOPA was added, and allowed to react at 30°C for 10 min. The absorbance (As) at 475 nm was finally measured with a microplate reader (Synergy H1, BioTek Co., Ltd., USA). Taking the reaction system without enzyme and sample as a blank.
4 ml of hydrolysis product (5 mg/ml) and 2 ml of mushroom tyrosinase (10 U/ml) were incubated for 1 h at 37°C. Inactivated mushroom tyrosinase (heated in a boiling water bath for 10 mins) was also prepared as a blank group.

[1] = system: B16F10 melanoma cells (melanin content); experiment: Melanin content in B16F10 melanoma cells; format: cell-based, murine; details: positive control, 0.75 mg/ml; NaOH/10% DMSO lysis, 405 nm
Experimental: (§1) B16F10 cells were kept in Dulbecco's modified eagle medium supplemented with 10% heat-inactivated fetal bovine serum, and cells were cultured at 37°C in an atmosphere with 5% CO2. These cells were then used for cell viability, tyrosinase inhibition and melanin content determination.
After cultivated according to the instructions above, the cells were digested with 0.25% trypsin when reached to 80–90% confluence to make a single cell suspension. Fresh culture medium was used to adjust the cell concentration to 1 × 10^6 cells/ml, 2 ml of which was inoculated in a 6-well culture plate for incubation overnight. When the cells adhered, the supernatant was discarded and the cells were rinsed with PBS once. 2 ml fresh culture medium was added again for incubation under CO2 for 48 h. The supernatant was discarded after the incubation, and the adhered cells were rinsed with PBS and then dispersed with trypsin. The dispersed cells were collected and centrifuged at 1,500 r/min for 10 min. […] Measured the optical density value of each well at 405 nm with a microplate reader, and calculated the melanin content ([32]). (3) Melanin content/%=(As-Ab)/(Ac-Ab)×100% where, As is the absorbance of experimental wells; Ac is the absorbance of control well; Ab is the absorbance of blank wells.

[2] = system: tyrosinase in B16F10 cells; experiment: Tyrosinase activity in B16F10 melanoma cells; format: cell-based, murine; details: positive control, 0.75 mg/ml, 24 h; lysate with 10 mM L-DOPA, 30 min 37°C, 450 nm
Experimental: The tyrosinase inhibition was determined according to the method of Ullah et al. ([31]). B16F10 cells were seeded into 96-well plates at a rate of 5 × 10^4 cells per well and incubated at 37°C in a humid atmosphere of 5% CO2 for 24 h. […] (0, 0.1, 0.2, 0.4, 0.8 and 1.6 mg/ml), and re-incubated for 24 h under the same conditions. The cells were then washed with PBS buffer, lysed with lysate buffer [100 μl containing 50 mM PBS, 0.1 mM phenylmethanesulfonyl fluoride (5 μl) and Triton X-100 (5 μl)], and frozen at −80°C for 30 min. The cell lysate was then centrifuged at 12,000 rpm at 4°C for 30 min and transferred to a 96-well plate with a total volume of 100 μl (80 μl lysate supernatant and 20 μl 10 mM L-DOPA) and incubated for 30 min at 37°C. The absorbance was measured at 450 nm using an enzyme-linked immunosorbent assay (ELISA) reader.

B16F10 melanoma cells = experiment: Cell viability of B16F10 melanoma cells (CCK-8); format: cell-based, murine; details: 24 h
Experimental: as §1
The previously described cell counting kit-8 (CCK-8) assay was used to assess cell viability ([30]). The cells were incubated in a 96-well plate with 5 × 10^4 cells per well in a 5% humid CO2 atmosphere at 37°C for 24 h. […] The cells were re-incubated for 24 h under the same conditions. The cells were then treated with the CCK-8 reagent and incubated at 37°C for 1 h. Cell viability is calculated by reading the absorbance value at 450 nm. The calculation formula is shown below. (2) Cell viability/%=(As-Ab)/(Ac-Ab)×100% where, As is the absorbance of experimental wells (medium containing cells, CCK-8, sample to be tested); Ac is the absorbance of control well (medium containing cells, CCK-8, no sample to be tested); Ab is the absorbance of blank wells (medium without cells and samples to be tested, CCK-8).

[3] = synthetic peptides (purity more than 95%), mushroom tyrosinase, 2.5 mM L-DOPA, 200 mM pH 6.8 PBS, preincubation 15 min room temperature, 10 min 30°C, 475 nm, three parallel tests, read-out: IC50 (tyrosinase inhibition)

For “Phe-Pro-Tyr [FPY, from defatted walnut (Juglans regia L.) meal hydrolysate]”, which IC50 (tyrosinase; from defatted walnut (Juglans regia L.) meal hydrolysate, read-out: IC50 (tyrosinase inhibition)) is on record?
The IC50 was 3.22 ± 0.22 mM.

For `CC(C)C[C@H](NC(=O)[C@@H](NC(=O)[C@H](CC(C)C)NC(=O)[C@H](CCC(N)=O)NC(=O)[C@@H](N)Cc1c[nH]c2ccccc12)[C@@H](C)O)C(=O)O` [WQLTL] (H-WQLTL-OH), which IC50 (Mushroom tyrosinase; [3]) is on record?
The IC50 was 3.86 mM.

For `CC(C)[C@H](NC(=O)[C@H](CCC(=O)O)NC(=O)[C@H](CO)NC(=O)[C@@H](N)Cc1c[nH]c2ccccc12)C(=O)N[C@@H](Cc1ccccc1)C(=O)O` [WSEVF] (H-WSEVF-OH), which IC50 (Mushroom tyrosinase; [3]) is on record?
The IC50 was 5.81 mM.

With “RHAKF [from Chinese quince seed protein hydrolysate]” as the compound, how does the “IC50 (tyrosinase inhibition)” value (tyrosinase; from Chinese quince seed protein hydrolysate) read?
The value was 1150 µg/mL.

With `CC(C)C[C@H](NC(=O)[C@H](CC(=O)O)NC(=O)[C@@H](N)Cc1ccccc1)C(=O)NCC(=O)N[C@@H](Cc1ccccc1)C(=O)N[C@@H](CC(C)C)C(=O)N[C@@H](C)C(=O)N[C@@H](CCCNC(=N)N)C(=O)O` (H-FDLGFLAR-OH) as the compound, how does the IC50 (Mushroom tyrosinase; [3]) read?
Its IC50 is 4 mM.

What does the source list for `O=c1cc(CO)occ1O` [kojic acid]?
Reduction of melanin content [1]: 55.4%; Tyrosinase inhibition rate in B16F10 cells [2]: 28.34%

For `CC(C)C[C@H](NC(=O)[C@H](Cc1ccccc1)NC(=O)CNC(=O)[C@H](CC(C)C)NC(=O)[C@@H](N)CC(=O)O)C(=O)N[C@@H](C)C(=O)N[C@@H](CCCNC(=N)N)C(=O)NCC(=O)N[C@@H](Cc1ccccc1)C(=O)O` (H-DLGFLARGF-OH), which IC50 (Mushroom tyrosinase) is on record?
Its IC50 is 3.09 mM.

And the “Cell viability, concentration dependence” value (B16F10 melanoma cells; 0–1.6 mg/ml, CCK-8)?
The value was “cell survival rate gradually decreased”.

What about the Cell viability (B16F10 melanoma cells; tested concentration range 0–1.6 mg/ml, CCK-8, 450 nm) of the same compound?
Its Cell viability is > 50%.
